Values of other authors as cited in patent US20030004177A1, “Abuse-resistant opioid dosage form” (Endo Pharmaceuticals, Inc., priority 2001, published 2003).
Where two headings read alike, the source gives them in different places.

Assays:
opioid effect = conditions: injection or intranasal administration

C=CCN1CC[C@]23c4c5ccc(O)c4O[C@H]2C(=O)CC[C@@]3(O)[C@H]1C5 [naloxone]
amount needed to antagonize the opioid effect, to induce abstinence in dependent individuals, and to prevent abuse (opioid effect): 0.2 to 0.4 mg | bioavailability (administered orally): very low | bioavailability (administered parenterally): high
